Like-named read-outs stand apart in the source and are kept apart here.

For experiment [1], the target named is T1, PI3Kalpha (PIK3CA/PIK3R1, p110 alpha/p85 alpha) (Homo sapiens, UniProt P42336).
T1 construct: recombinant human, full length, N-terminal His-tagged phosphoinositide-3-kinase catalytic subunit alpha polypeptide; His (N); purchased Invitrogen Corp. PV4788; host or cells: insect cells
Put plainly: Adapta universal kinase assay, inhibition of PI3Kalpha (Example B). It counts as biochemical. The source says: In contrast to ATP depletion assays, the Adapta™ assay is extremely sensitive to ADP formation such that a majority of the signal change occurs in the first 10-20% conversion of ATP to ADP. This makes the Adapta™ universal kinase assay ideally suited for use with low activity kinases.
The principle of the Adapta™ universal kinase assay is outlined below. The assay itself can be divided into two phases: a kinase reaction phase, and an ADP detection phase. In the kinase reaction phase, all components required for the kinase reaction are added to the well, and the reaction is allowed to incubate for 60 minutes. After the reaction, a detection solution consisting of a europium labeled anti-ADP antibody, an Alexa Fluor® 647 labeled ADP tracer, and EDTA (to stop the kinase reaction) is added to the assay well. ADP formed by the kinase reaction (in the absence of an inhibitor) will displace the Alexa Fluor® 647 labeled ADP tracer from the antibody, resulting in a decrease in the TR-FRET signal.
ADP formation is determined by calculating the emission ratio from the assay well. The emission ratio is calculated by dividing the intensity of the tracer (acceptor) emission by the intensity of the Eu (donor) emission at 615 nm as shown in the equation below.
Since the Adapta™ technology measures ADP formation (i.e. conversion of ATP to ADP) it can be used to measure any type of ATP hydrolysis, including intrinsic ATPase activity of kinases. In this case, the substrate is water, not a lipid or peptide (Kashem, et al., 2007, J. Biomol. Screen. 12, 1, 70-83).
The combination of recombinant human, full length, N-terminal His-tagged phosphoinositide-3-kinase catalytic subunit alpha polypeptide ([…], PI3Kalpha), expressed in and purified from insect cells along with co-expressed recombinant, full length, untagged phosphoinositide-3-kinase regulatory subunit 1 (p85 alpha) (combination also known as PIK3CA/PIK3R1; Invitrogen Corp. Cat # PV4788) was used as the enzyme for this assay.
The test compounds are screened at 1% DMSO (final) in the well. […] The PIP2:PS Substrate/Kinase Mixture was diluted 2× to working concentration in Kinase Buffer containing 50 mM HEPES pH 7.5, 0.1% CHAPS, and 1 mM EGTA. […] The Detection Mix was prepared in TR-FRET Dilution Buffer.
After the 1 hour Kinase Reaction incubation at room temperature, 5 μL of Detection Mix was added, followed by another 30 sec plate shake to ensure mixing, and the Detection Mix was allowed to equilibrate for 1 hour at room temperature.
Lipid substrates are prepared by creating lipid vesicles. In some cases, these vesicles include a carrier lipid, such as phosphatidylserine (PS). In the assay conditions section above, “PIP2:PS” refers to large unilamellar vesicles (LUVs) containing five mole percent L-α-Phosphatidylinositol-4,5-bisphosphate (PIP2) and ninety-five percent phosphatidylserine (PS), and the concentration listed refers only to the PIP2 substrate, not the PS carrier lipid.

Experiment [2] addresses mTOR (Homo sapiens, UniProt P42345). Put plainly: Z-Lyte biochemical assay, inhibition of mTOR (Example A).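 Note: synthetic Ser/Thr peptide with coumarin–fluorescein FRET pair, phosphorylation protects from protease cleavage, coumarin/fluorescein emission ratio after 400 nm excitation, 1 h kinase reaction, 10-point 3-fold titrations.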
Description: The inhibitory property of a compound relative to mTOR catalysis was determined by using the Z-Lyte™ biochemical assay conducted by Invitrogen Corporation (Madison, Wis.), which employs a fluorescence-based, coupled-enzyme format and is based on the differential sensitivity of phosphorylated and non-phosphorylated peptides to proteolytic cleavage. The peptide substrate is labeled with two fluorophores—one at each end—that make up a FRET pair.
In the primary reaction, the kinase transfers the gamma-phosphate of ATP to a single tyrosine, serine or threonine residue in a synthetic FRET-peptide. In the secondary reaction, a site-specific protease recognizes and cleaves non-phosphorylated FRET-peptides. Phosphorylation of FRET-peptides suppresses cleavage by the Development Reagent. Cleavage disrupts FRET between the donor (i.e., coumarin) and acceptor (i.e., fluorescein) fluorophores on the FRET-peptide, whereas uncleaved, phosphorylated FRET-peptides maintain FRET. A ratio metric method, which calculates the ratio (the Emission Ratio) of donor emission to acceptor emission after excitation of the donor fluorophore at 400 nm, is used to quantitate reaction progress, as shown in the equation below.
A significant benefit of this ratio metric method for quantitating reaction progress is the elimination of well-to-well variations in FRET-peptide concentration and signal intensities. […] Both cleaved and uncleaved FRET-peptides contribute to the fluorescence signals and therefore to the Emission Ratio. The extent of phosphorylation of the FRET-peptide can be calculated from the Emission Ratio.
Recombinant human mTOR enzyme (amino acids 1360-2549), GST-tagged, expressed in and purified from insect cells (Invitrogen Corp. Cat. #PV4753; also known as FRAP1) was used for the assay. The 2×FRAP1 (mTOR)/Ser/Thr 11 Peptide Mixture (Invitrogen Corp.) was prepared in buffer containing 50 mM HEPES pH 7.5, 0.01% BRIJ-35, 10 mM MnCl2, 1 mM EGTA, 2 mM DTT, and 0.02% NaN3. The final 10 μL Kinase Reaction consisted of 7.2-58.1 ng FRAP1 (mTOR) and 2 μM Ser/Thr 11 Peptide in buffer containing 50 mM HEPES pH 7.5, 0.01% BRIJ-35, 5 mM MgCl2, 5 mM MnCl2, 1 mM EGTA, 1 mM DTT, and 0.01% NaN3.
Test compounds are screened in 1% DMSO (final) in the well. For 10 point titrations, 3-fold serial dilutions are conducted from the starting concentration. The Ser/Thr 11 Peptide/Kinase Mixture was diluted to a 2× working concentration in buffer containing 50 mM HEPES pH 7.5, 0.01% BRIJ-35, 10 mM MnCl2, 1 mM EGTA, 2 mM DTT, and 0.02% NaN3. The ATP solution was diluted to a 4× working concentration in buffer containing 50 mM HEPES pH 7.5, 0.01% BRIJ-35, 10 mM MgCl2, and 1 mM EGTA.
After the 1 hour Kinase Reaction incubation, 5 μL of a 1:16 dilution of Development Reagent B was added, and the development reaction was allowed to proceed for an additional 1 hour at room temperature. The assay plate was then read on a fluorescence plate reader and the data analyzed as outlined above.
IC50 values were calculated by non-linear least squares curve fitting using XLfit from IDBS to fit the results to model number 205 (sigmoidal dose-response model).
Where [3] appears, read: Table 1, 25 μM ATP, read-out: IC50 (nM) PI3Kα.
Setting [4] is: IC50 (nM) mTOR, Table 1, 10 μM ATP.

T1 sequence (P42336 whole entry): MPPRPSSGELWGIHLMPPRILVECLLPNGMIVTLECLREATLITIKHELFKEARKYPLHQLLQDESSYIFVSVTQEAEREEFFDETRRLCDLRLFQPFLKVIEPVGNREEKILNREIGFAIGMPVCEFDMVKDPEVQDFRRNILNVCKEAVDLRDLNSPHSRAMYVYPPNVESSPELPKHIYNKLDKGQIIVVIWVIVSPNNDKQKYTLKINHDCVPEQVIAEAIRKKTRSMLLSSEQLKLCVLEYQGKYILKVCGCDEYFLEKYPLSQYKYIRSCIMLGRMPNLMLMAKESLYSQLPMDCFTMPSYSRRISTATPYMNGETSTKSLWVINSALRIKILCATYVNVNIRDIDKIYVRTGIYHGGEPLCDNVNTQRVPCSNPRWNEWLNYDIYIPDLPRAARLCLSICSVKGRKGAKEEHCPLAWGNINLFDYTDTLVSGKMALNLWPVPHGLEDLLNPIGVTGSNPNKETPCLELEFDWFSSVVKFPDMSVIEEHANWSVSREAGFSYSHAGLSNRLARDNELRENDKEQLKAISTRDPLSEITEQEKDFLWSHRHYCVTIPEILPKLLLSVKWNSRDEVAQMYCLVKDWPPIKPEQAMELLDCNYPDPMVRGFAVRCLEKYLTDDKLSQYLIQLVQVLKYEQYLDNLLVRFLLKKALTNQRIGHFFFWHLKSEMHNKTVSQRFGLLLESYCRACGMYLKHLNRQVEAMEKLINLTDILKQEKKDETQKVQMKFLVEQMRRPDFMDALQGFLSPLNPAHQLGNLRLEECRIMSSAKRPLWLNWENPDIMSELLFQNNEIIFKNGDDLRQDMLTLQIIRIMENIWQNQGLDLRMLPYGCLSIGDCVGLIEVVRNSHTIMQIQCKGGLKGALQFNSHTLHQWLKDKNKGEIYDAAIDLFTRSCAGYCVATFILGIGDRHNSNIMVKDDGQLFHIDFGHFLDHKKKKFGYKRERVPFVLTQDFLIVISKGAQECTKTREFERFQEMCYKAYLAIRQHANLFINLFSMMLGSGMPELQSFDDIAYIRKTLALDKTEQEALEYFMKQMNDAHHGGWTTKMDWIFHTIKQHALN
T1 sequence (P27986 whole entry partner): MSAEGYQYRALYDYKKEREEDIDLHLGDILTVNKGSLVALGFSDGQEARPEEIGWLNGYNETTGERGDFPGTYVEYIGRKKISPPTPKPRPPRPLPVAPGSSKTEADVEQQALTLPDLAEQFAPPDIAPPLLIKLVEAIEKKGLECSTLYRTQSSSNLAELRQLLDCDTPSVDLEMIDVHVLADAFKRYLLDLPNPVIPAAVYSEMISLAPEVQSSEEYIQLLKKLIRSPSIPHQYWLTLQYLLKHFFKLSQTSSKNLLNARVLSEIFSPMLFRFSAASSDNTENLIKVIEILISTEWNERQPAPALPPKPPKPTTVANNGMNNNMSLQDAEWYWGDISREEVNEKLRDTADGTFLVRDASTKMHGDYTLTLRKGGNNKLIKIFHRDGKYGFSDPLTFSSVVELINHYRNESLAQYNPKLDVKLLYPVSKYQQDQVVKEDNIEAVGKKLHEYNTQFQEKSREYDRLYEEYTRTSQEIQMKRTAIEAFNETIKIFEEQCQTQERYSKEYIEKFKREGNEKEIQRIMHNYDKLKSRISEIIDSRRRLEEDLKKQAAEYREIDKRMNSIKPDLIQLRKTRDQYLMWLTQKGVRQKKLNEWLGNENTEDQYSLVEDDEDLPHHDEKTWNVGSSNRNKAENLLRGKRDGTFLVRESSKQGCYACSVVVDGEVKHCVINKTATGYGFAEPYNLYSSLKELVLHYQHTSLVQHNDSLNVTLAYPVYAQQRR
mTOR, sequence (P42345 1360-2549): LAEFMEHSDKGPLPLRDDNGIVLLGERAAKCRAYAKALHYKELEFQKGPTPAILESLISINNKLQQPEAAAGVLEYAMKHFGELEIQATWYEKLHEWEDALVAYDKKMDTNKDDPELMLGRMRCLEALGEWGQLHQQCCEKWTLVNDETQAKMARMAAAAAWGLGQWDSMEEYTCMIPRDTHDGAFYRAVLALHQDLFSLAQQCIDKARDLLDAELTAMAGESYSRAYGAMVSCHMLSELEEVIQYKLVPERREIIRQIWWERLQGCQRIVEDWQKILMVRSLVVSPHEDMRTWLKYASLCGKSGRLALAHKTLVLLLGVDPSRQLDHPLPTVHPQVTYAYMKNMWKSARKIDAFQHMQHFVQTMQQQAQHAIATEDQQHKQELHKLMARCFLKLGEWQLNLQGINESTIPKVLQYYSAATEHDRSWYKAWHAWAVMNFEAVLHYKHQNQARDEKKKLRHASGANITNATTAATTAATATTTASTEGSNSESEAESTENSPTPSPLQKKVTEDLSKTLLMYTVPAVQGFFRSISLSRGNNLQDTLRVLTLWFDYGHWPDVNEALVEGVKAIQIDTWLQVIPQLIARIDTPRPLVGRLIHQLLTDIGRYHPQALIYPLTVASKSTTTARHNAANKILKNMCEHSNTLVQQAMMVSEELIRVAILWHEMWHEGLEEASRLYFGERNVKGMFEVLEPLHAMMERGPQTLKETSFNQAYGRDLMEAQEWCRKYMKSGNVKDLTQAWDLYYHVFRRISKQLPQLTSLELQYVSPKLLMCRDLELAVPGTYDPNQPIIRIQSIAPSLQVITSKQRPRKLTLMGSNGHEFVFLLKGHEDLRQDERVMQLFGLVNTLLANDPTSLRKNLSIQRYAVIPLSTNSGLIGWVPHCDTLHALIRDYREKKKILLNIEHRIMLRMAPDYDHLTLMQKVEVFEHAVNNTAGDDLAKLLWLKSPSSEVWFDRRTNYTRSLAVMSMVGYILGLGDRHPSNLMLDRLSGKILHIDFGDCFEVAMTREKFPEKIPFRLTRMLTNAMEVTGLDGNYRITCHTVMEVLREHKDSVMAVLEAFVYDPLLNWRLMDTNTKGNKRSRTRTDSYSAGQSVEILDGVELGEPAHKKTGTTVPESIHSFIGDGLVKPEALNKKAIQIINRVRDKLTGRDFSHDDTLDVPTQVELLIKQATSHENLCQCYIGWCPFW

Regarding `CC(=O)Nc1nc2ccc(-c3cccc4[nH]ccc34)cc2s1` [Example 14, N-(6-(1H-Indol-4-yl)benzo[d]thiazol-2-yl)acetamide], the IC50 in experiment [1] (setting [3]) and in experiment [2] (setting [4]) was more than 1000 nM each time.

For `CC(=O)Nc1nc2ccc(-c3ccc4[nH]cc(C#N)c4c3)cc2s1` [Example 16, N-(6-(3-Cyano-1H-indol-5-yl)benzo[d]thiazol-2-yl)acetamide], the IC50 (as a rule, the point on the concentration scale where inhibition reaches its midpoint) in experiment [1] (setting [3]) was more than 1000 nM; in experiment [2] (setting [4]), 100 to 1000 nM.

Turning to `CC(=O)Nc1nc2ccc(-c3ccc4c(c3)NC(=O)CNC4=O)cc2s1` [Example 21, N-(6-(2,5-Dioxo-2,3,4,5-tetrahydro-1H-benzo[e][1,4]diazepin-8-yl)benzo[d]thiazol-2-yl)acetamide], the IC50 in experiment [1] (setting [3]) and in experiment [2] (setting [4]) was more than 1000 nM in each case.

Turning to `CC(=O)Nc1nc2ccc(-c3ccc(S(C)(=O)=O)cc3)nc2s1` [Example 26, N-(5-(4-(Methylsulfonyl)phenyl)thiazolo[5,4-b]pyridine-2-yl)acetamide], the IC50 in experiment [1] (setting [3]) and in experiment [2] (setting [4]) was more than 1000 nM throughout.

Consider `CNS(=O)(=O)c1ccc(-c2ccc3nc(NC(C)=O)sc3n2)cc1` [Example 28, N-(5-(4-(N-Methylsulfamoyl)phenyl)thiazolo[5,4-b]pyridine-2-yl)acetamide], for which the IC50 in experiment [1] (setting [3]) and in experiment [2] (setting [4]) was more than 1000 nM in each case.

`CC(=O)Nc1nc2ccc(-c3ccc(NS(C)(=O)=O)cc3)nc2s1` [Example 29, N-(5-(4-(Methylsulfonamido)phenyl)thiazolo[5,4-b]pyridin-2-yl)acetamide]: the IC50 is 100 to 1000 nM in experiment [1] (setting [3]); 310 nM in experiment [1] (exact value in text, read-out: IC50 value for PI3K); 100 to 1000 nM in experiment [2] (setting [4]); 790 nM in experiment [2] (IC50 value for mTOR, exact value in text).

Take `CC(=O)Nc1nc2ccc(-c3cc(NS(C)(=O)=O)c4[nH]ccc4c3)cc2s1` [Example 32, N-(6-(7-(Methylsulfonamido)-1H-indol-5-yl)benzo[d]thiazol-2-yl)acetamide]: the IC50 in experiment [1] (setting [3]) and in experiment [2] (setting [4]) was more than 1000 nM each time.

Consider `CC(=O)Nc1cccc(-c2ccc3nc(NC(C)=O)sc3c2)c1` [Example 41, N-(3-(2-Acetamidobenzo[d]thiazol-6-yl)phenyl)acetamide], for which the IC50 in experiment [1] (setting [3]) and in experiment [2] (setting [4]) was more than 1000 nM in each case.

These data come from patent publication US20110178070A1, “PI3K/mTOR INHIBITORS” (TAKEDA PHARMACEUTICAL COMPANY LIMITED, priority 2008, published 2011).
